Assay results as given in ChEMBL document CHEMBL4346705, “(±)-trans-Dihydronarciclasine and (±)-trans-dihydrolycoricidine analogues modified in their ring A: Evaluation of their anticancer activity and a SAR study” (2019).

Key:
Type in all cases: functional
IGROV-1 = assay: Antiproliferative activity against human IGROV1 cells assessed as cell viability at 10^-5 M incubated for 48 hrs by sulforhodamine B assay relative to control; settings: IGROV-1, 48 h, read-out: Activity
NCI-H23 = assay: Antiproliferative activity against human NCI-H23 cells assessed as cell viability at 10^-5 M incubated for 48 hrs by sulforhodamine B assay relative to control; settings: NCI-H23, 48 h, read-out: Activity
HCT-116 = assay: Antiproliferative activity against human HCT116 cells assessed as cell viability at 10^-5 M incubated for 48 hrs by sulforhodamine B assay relative to control; settings: HCT-116, 48 h, read-out: Activity
MDA-MB-231 = assay: Antiproliferative activity against human MDA-MB-231 cells assessed as cell viability at 10^-5 M incubated for 48 hrs by sulforhodamine B assay relative to control; settings: MDA-MB-231, 48 h, read-out: Activity
KM12 = assay: Antiproliferative activity against human KM12 cells assessed as cell viability at 10^-5 M incubated for 48 hrs by sulforhodamine B assay relative to control; settings: KM12, 48 h, read-out: Activity
SR = assay: Antiproliferative activity against human SR cells assessed as cell viability at 10^-5 M incubated for 48 hrs by sulforhodamine B assay relative to control; settings: read-out: Activity
HOP-62 = assay: Antiproliferative activity against human HOP62 cells assessed as cell viability at 10^-5 M incubated for 48 hrs by sulforhodamine B assay relative to control; settings: HOP-62, 48 h, read-out: Activity
786-0 = assay: Antiproliferative activity against human 786-0 cells assessed as cell viability at 10^-5 M incubated for 48 hrs by sulforhodamine B assay relative to control; settings: 786-0, 48 h, read-out: Activity
BT-549 = assay: Antiproliferative activity against human BT549 cells assessed as cell viability at 10^-5 M incubated for 48 hrs by sulforhodamine B assay relative to control; settings: BT-549, 48 h, read-out: Activity
NCI-H522 = assay: Antiproliferative activity against human NCI-H522 cells assessed as cell viability at 10^-5 M incubated for 48 hrs by sulforhodamine B assay relative to control; settings: NCI-H522, 48 h, read-out: Activity
SK-MEL-28 = assay: Antiproliferative activity against human SK-MEL-28 cells assessed as cell viability at 10^-5 M incubated for 48 hrs by sulforhodamine B assay relative to control; settings: SK-MEL-28, 48 h, read-out: Activity
MDA-MB-468 = assay: Antiproliferative activity against human MDA-MB-468 cells assessed as cell viability at 10^-5 M incubated for 48 hrs by sulforhodamine B assay relative to control; settings: MDA-MB-468, 48 h, read-out: Activity
HCT-15 = assay: Antiproliferative activity against human HCT15 cells assessed as cell viability at 10^-5 M incubated for 48 hrs by sulforhodamine B assay relative to control; settings: HCT-15, 48 h, read-out: Activity
NCI-H460 = assay: Antiproliferative activity against human NCI-H460 cells assessed as cell viability at 10^-5 M incubated for 48 hrs by sulforhodamine B assay relative to control; settings: NCI-H460, 48 h, read-out: Activity
Malme-3M = assay: Antiproliferative activity against human MALME-3M cells assessed as cell viability at 10^-5 M incubated for 48 hrs by sulforhodamine B assay relative to control; settings: read-out: Activity
UACC-62 = assay: Antiproliferative activity against human UACC62 cells assessed as cell viability at 10^-5 M incubated for 48 hrs by sulforhodamine B assay relative to control; settings: UACC-62, 48 h, read-out: Activity
HL-60(TB) = assay: Antiproliferative activity against human HL-60(TB) cells assessed as cell viability at 10^-5 M incubated for 48 hrs by sulforhodamine B assay relative to control; settings: HL-60, 48 h, read-out: Activity
NCI-H226 = assay: Antiproliferative activity against human NCI-H226 cells assessed as cell viability at 10^-5 M incubated for 48 hrs by sulforhodamine B assay relative to control; settings: NCI-H226, 48 h, read-out: Activity
RPMI-8226 = assay: Antiproliferative activity against human RPMI8226 cells assessed as cell viability at 10^-5 M incubated for 48 hrs by sulforhodamine B assay relative to control; settings: RPMI-8226, 48 h, read-out: Activity
OVCAR-8 = assay: Antiproliferative activity against human OVCAR8 cells assessed as cell viability at 10^-5 M incubated for 48 hrs by sulforhodamine B assay relative to control; settings: OVCAR-8, 48 h, read-out: Activity
UACC-257 = assay: Antiproliferative activity against human UACC257 cells assessed as cell viability at 10^-5 M incubated for 48 hrs by sulforhodamine B assay relative to control; settings: UACC-257, 48 h, read-out: Activity
DU-145 = assay: Antiproliferative activity against human DU145 cells assessed as cell viability at 10^-5 M incubated for 48 hrs by sulforhodamine B assay relative to control; settings: DU-145, 48 h, read-out: Activity
A549 = assay: Antiproliferative activity against human A549 cells assessed as cell viability at 10^-5 M incubated for 48 hrs by sulforhodamine B assay relative to control; settings: A549, 48 h, read-out: Activity
SNB-19 = assay: Antiproliferative activity against human SNB19 cells assessed as cell viability at 10^-5 M incubated for 48 hrs by sulforhodamine B assay relative to control; settings: SNB-19, 48 h, read-out: Activity
CCRF-CEM = assay: Antiproliferative activity against human CCRF-CEM cells assessed as cell viability at 10^-5 M incubated for 48 hrs by sulforhodamine B assay relative to control; settings: read-out: Activity
U-251 = assay: Antiproliferative activity against human U251 cells assessed as cell viability at 10^-5 M incubated for 48 hrs by sulforhodamine B assay relative to control; settings: U-251, 48 h, read-out: Activity
EKVX = assay: Antiproliferative activity against human EKVX cells assessed as cell viability at 10^-5 M incubated for 48 hrs by sulforhodamine B assay relative to control; settings: read-out: Activity
SF-268 = assay: Antiproliferative activity against human SF268 cells assessed as cell viability at 10^-5 M incubated for 48 hrs by sulforhodamine B assay relative to control; settings: SF-268, 48 h, read-out: Activity

| Compound | viability at 10 µM (IGROV-1) [%] | viability at 10 µM (NCI-H23) [%] | viability at 10 µM (HCT-116) [%] | viability at 10 µM (MDA-MB-231) [%] | viability at 10 µM (KM12) [%] | viability at 10 µM (SR) [%] | viability at 10 µM (HOP-62) [%] | viability at 10 µM (786-0) [%] | viability at 10 µM (BT-549) [%] | viability at 10 µM (NCI-H522) [%] | viability at 10 µM (MDA-MB-468) [%] | viability at 10 µM (HCT-15) [%] | viability at 10 µM (NCI-H460) [%] | viability at 10 µM (Malme-3M) [%] | viability at 10 µM (UACC-62) [%] | viability at 10 µM (HL-60(TB)) [%] | viability at 10 µM (NCI-H226) [%] | viability at 10 µM (RPMI-8226) [%] | viability at 10 µM (OVCAR-8) [%] | viability at 10 µM (UACC-257) [%] | other results |
| --- | --- | --- | --- | --- | --- | --- | --- | --- | --- | --- | --- | --- | --- | --- | --- | --- | --- | --- | --- | --- | --- |
| COc1cc2c(c3c1OCCO3)C(=O)NC1C2CC(O)C(O)C1O (racemic) | 107 | 102 | 99.6 | 103 | 95 | 97.1 | 100 | 95.6 | 98.3 | 93 | 99.5 | 102 | 106 | 103 | 99.3 | 96.7 | 95.7 | 100 | 95.2 | 97.5 | viability at 10 µM (SK-MEL-28): 106%; viability at 10 µM (DU-145): 103%; viability at 10 µM (A549): 93.7%; viability at 10 µM (SNB-19): 100%; viability at 10 µM (CCRF-CEM): 103%; viability at 10 µM (U-251): 100%; viability at 10 µM (EKVX): 103%; viability at 10 µM (SF-268): 98.3% |
| O=C1NC2C(CC(O)C(O)C2O)c2cc3c(cc21)OCCO3 (racemic) | 103 | 107 | 95.5 | 109 | 108 | 107 | 103 | 102 | 98.3 | 101 | 107 | 103 | 107 | 105 | 103 | 101 | 97.7 | 107 | 107 | 107 | viability at 10 µM (DU-145): 114%; viability at 10 µM (A549): 109%; viability at 10 µM (SNB-19): 102%; viability at 10 µM (CCRF-CEM): 106%; viability at 10 µM (U-251): 101%; viability at 10 µM (EKVX): 97.4%; viability at 10 µM (SF-268): 101% |
| CCCOc1cc2c(cc1OCC)C1CC(O)C(O)C(O)C1NC2=O (racemic) | 103 | 108 | 101 | 118 | 108 | 116 | 104 | 101 | 97.1 | 96.7 | 112 | 112 | 107 | 108 | 117 | 101 | 99.6 | 104 | 104 | 104 | viability at 10 µM (DU-145): 110%; viability at 10 µM (A549): 107%; viability at 10 µM (SNB-19): 105%; viability at 10 µM (CCRF-CEM): 107%; viability at 10 µM (U-251): 98.5%; viability at 10 µM (EKVX): 104%; viability at 10 µM (SF-268): 97.6% |
